Values quoted from earlier work in patent publication US7862843B2 (priority 2004, dated 2011).

Assays:
prions [1] = test system: prions
prions [2] = test system: prions; remark: listed apart in the source

CC(C)=O [acetone]
Inactivating the infectivity of prions (prions [1]): ineffective

O=C1CCO1 [beta-propiolactone]
Inactivating the infectivity of prions (prions [1]): ineffective

CCO [ethanol]
Inactivating the infectivity of prions (prions [1]): ineffective

C1CO1 [ethylene oxide]
Inactivating the infectivity of prions (prions [1]): ineffective

C=O [formalin]
Inactivating the infectivity of prions (prions [1]): ineffective

[Na+].[O-]Cl [hypochlorite, sodium hypochlorite]
Infectivity lost (prions [2]; 1,000 ppm available chlorine, 4-16 hour exposure): 10^4-10^5 units of infectivity | Inactivation of prions on surfaces (prions [2]; full strength, 20,000-50,000 ppm): effective
